Source: patent US9549932B2, “2-(morpholin-4-yl)-1,7-naphthyridines” (BAYER PHARMA AKTIENGESELLSCHAFT, priority 2014, dated 2017)
Read-outs that look alike come from different tables or passages of the source.

How the values were obtained:
[1] = target: full-length human ATR protein (Homo sapiens (Human), UniProt Q13535); experiment: Binding assay ATR (TR-FRET tracer displacement); settings: TR-FRET
Method in brief: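 Full-length human GST-ATR co-purified with ATRIP, pre-complexed 30 min at 22 °C with anti-GST-Tb antibody, then pre-bound with compound 10 min. Tracer A or B added (2 µl of 100 nM solution), 30 min at 22 °C.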

NCI-H460 cells = experiment: Proliferation assay NCI-H460 (crystal violet); settings: read-out: Inhibition of NCI-H460 cell proliferation, 4 days incubation
Description: (§1) After 24 hours, the cells of one plate (zero plate) were dyed with crystal violet (see below), whereas the medium of the other plates was replaced with fresh culture medium (200 μl) to which the test substances were added in various concentrations (0 μM, and also in the range of 0.001-10 μM; the final concentration of the solvent dimethyl sulphoxide was 0.1 or 0.5%). The cells were incubated for 4 days in the presence of the test substances. […] After washing the fixed cells three times with water, the plates were dried at room temperature. The cells were stained by adding 100 μl/measurement point of a 0.1% strength crystal violet solution (pH adjusted to pH 3 by adding acetic acid). After washing the cells three times with water, the plates were dried at room temperature. The dye was dissolved by adding 100 μl/measurement point of a 10% strength acetic acid solution. […] The percentage change in cell growth was calculated by normalizing the measured values to the absorbance values of the zero plate (=0%) and the absorbance of the untreated (0 μM) cells (=100%). The IC50 values were determined by means of a four parameter fit.

B16F10 cells = experiment: Proliferation assay B16F10 (crystal violet); settings: read-out: Inhibition of B16F10 cell proliferation, 4 days incubation
Description: as §1

HeLa cells = experiment: Proliferation assay HeLa (crystal violet)
Description: as §1

DU145 cells = experiment: Proliferation assay DU145 (crystal violet); settings: read-out: Inhibition of DU145 cell proliferation, 4 days incubation
Description: as §1

Caco-2 cells = experiment: Proliferation assay Caco-2 (crystal violet); assay type: cell-based, human; settings: 4 days incubation, read-out: Inhibition of Caco-2 cell proliferation
Description: as §1

[2] = tracer A, read-out: ATR binding (tracer A) IC50
[3] = tracer B, read-out: ATR binding (tracer B) IC50

Sequence of full-length human ATR protein (Q13535 other isoform, or with tags, fused parts or gaps): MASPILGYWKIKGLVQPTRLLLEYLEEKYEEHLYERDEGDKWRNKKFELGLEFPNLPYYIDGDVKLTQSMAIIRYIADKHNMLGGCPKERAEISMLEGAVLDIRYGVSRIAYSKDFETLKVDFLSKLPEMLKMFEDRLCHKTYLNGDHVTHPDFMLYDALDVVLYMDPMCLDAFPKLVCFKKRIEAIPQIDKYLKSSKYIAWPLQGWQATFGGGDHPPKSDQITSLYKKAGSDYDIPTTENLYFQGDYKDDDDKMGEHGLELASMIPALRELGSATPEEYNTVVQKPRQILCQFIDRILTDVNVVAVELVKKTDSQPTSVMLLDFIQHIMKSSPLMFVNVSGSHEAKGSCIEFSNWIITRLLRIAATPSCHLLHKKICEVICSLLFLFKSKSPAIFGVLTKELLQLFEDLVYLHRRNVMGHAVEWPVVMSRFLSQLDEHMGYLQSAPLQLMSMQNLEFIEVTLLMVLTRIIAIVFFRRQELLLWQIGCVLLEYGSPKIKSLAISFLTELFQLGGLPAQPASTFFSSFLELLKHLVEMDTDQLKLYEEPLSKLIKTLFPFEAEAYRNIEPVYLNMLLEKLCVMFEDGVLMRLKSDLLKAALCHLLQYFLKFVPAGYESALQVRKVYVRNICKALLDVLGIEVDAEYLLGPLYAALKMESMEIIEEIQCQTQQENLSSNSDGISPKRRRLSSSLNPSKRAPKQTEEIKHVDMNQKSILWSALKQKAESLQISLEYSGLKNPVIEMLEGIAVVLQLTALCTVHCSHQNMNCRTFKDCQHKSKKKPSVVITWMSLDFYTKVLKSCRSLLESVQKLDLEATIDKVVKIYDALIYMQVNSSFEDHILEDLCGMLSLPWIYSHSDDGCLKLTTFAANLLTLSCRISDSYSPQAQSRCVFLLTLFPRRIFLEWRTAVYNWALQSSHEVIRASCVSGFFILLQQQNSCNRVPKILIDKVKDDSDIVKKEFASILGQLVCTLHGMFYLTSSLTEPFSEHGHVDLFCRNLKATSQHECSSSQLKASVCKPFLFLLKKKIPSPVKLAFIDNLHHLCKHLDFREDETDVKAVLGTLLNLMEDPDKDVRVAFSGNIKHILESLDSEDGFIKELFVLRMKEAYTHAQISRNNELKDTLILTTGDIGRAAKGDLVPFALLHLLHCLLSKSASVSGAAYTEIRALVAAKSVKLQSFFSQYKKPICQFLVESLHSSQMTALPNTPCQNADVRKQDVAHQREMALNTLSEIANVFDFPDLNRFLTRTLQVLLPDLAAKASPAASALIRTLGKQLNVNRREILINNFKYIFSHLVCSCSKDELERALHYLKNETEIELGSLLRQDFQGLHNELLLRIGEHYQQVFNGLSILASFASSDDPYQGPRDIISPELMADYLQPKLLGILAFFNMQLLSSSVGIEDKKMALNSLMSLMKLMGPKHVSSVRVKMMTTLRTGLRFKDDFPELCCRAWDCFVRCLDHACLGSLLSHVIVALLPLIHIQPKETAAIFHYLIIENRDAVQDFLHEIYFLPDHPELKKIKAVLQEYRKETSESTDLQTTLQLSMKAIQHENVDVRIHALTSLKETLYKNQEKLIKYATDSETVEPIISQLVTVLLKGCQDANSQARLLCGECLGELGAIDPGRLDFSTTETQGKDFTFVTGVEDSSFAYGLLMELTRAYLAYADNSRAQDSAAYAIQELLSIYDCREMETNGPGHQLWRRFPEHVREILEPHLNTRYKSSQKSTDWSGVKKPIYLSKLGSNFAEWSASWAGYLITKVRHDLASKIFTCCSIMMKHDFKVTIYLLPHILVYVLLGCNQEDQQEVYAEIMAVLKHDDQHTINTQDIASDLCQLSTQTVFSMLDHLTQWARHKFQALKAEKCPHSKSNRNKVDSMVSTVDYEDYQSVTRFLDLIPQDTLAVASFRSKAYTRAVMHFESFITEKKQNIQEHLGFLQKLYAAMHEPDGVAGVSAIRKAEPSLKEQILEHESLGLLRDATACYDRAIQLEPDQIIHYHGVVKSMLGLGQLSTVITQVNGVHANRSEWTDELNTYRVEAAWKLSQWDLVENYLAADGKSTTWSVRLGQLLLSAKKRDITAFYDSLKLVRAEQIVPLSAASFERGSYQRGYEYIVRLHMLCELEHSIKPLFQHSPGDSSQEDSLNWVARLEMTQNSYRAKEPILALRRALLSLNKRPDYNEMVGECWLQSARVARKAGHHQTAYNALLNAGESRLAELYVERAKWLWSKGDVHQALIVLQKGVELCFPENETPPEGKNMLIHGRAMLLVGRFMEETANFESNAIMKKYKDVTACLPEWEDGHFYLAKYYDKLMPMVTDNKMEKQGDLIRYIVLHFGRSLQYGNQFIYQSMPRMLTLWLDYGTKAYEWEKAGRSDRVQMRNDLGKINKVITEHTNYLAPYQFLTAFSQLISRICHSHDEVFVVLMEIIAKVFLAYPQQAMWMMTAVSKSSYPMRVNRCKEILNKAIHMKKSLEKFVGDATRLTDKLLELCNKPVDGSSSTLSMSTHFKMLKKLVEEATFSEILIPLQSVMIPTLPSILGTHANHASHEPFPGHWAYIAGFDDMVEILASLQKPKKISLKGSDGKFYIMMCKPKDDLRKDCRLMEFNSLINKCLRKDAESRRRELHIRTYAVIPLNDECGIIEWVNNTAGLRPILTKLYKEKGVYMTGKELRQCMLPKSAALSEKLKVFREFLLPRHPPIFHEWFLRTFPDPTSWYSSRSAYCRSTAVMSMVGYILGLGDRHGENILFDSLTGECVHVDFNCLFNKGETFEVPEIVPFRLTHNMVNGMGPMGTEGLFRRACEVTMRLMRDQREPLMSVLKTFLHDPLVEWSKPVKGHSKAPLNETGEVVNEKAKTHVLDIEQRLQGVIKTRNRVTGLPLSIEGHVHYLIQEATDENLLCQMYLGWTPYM
Sequence of full-length human ATR protein (Q8WXE1 other isoform, or with tags, fused parts or gaps partner): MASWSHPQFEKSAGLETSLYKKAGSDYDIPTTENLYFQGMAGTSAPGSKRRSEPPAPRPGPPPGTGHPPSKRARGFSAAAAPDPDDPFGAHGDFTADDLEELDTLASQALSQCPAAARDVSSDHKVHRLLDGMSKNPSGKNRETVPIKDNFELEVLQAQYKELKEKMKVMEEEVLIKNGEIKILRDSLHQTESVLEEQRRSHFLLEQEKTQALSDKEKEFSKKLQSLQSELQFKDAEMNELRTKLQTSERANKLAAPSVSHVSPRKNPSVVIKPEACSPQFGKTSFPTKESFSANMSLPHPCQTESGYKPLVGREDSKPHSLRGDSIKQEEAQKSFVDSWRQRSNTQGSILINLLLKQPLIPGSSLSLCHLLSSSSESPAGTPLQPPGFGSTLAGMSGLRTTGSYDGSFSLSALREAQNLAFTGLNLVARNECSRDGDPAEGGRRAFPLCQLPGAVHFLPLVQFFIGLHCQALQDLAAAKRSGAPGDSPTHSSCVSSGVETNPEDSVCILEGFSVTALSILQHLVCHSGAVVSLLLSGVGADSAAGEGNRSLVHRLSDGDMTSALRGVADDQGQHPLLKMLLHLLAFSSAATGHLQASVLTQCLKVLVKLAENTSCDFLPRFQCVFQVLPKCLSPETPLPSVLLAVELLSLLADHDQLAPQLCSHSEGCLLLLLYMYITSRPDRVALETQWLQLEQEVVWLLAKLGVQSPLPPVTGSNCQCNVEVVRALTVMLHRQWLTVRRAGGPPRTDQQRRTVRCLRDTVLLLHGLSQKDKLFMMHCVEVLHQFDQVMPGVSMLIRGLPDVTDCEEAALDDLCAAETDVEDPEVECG

Molecule | IC50 [1, 2] | further results
CS(=O)(=O)c1cc(N2CCOCC2)nc2c(-c3cc[nH]n3)nccc12 [Example 32] | 84.7 nM | IC50 [1, 3]: 36.7 nM; IC50 (NCI-H460 cells): 1950 nM
CC(C)Oc1cc(N2CCOCC2)nc2c(-c3cc[nH]n3)nccc12 [Example 40, 4-isopropoxy-2-(morpholin-4-yl)-8-(1H-pyrazol-3-yl)-[1,7]naphthyridine] | 125 nM | IC50 [1, 3]: 99 nM; IC50 (B16F10 cells): > 3000 nM
c1cc(-c2nccc3c(N4C[C@@H]5C[C@H]4CO5)cc(N4CCOCC4)nc23)[nH]n1 [Example 185, 2-(morpholin-4-yl)-4-[(1S,4S)-2-oxa-5-azabicyclo[2.2.1]hept-5-yl]-8-(1H-pyrazol-5-yl)-1,7-naphthyridine] | 852 nM | IC50 (HeLa cells; Homo sapiens, HeLa, 96 h, read-out: Inhibition of HeLa cell proliferation, HeLa cells, 4 days incubation, crystal violet): > 3000 nM
5-fluoro-2-{2-[(3R)-3-methylmorpholin-4-yl]-8-(1H-pyrazol-5-yl)-1,7-naphthyridin-4-yl}aniline [Example 190] | – | IC50 (HeLa cells; read-out: Inhibition of HeLa cell proliferation, HeLa cells, 4 days incubation, crystal violet): 334 nM
O=S1(=O)CCCN1c1cc(N2CCOCC2)nc2c(-c3ccn[nH]3)nccc12 [Example 216, 4-(1,1-dioxido-1,2-thiazolidin-2-yl)-2-(morpholin-4-yl)-8-(1H-pyrazol-5-yl)-1,7-naphthyridine] | 84.4 nM | IC50 (DU145 cells): 1330 nM; IC50 (NCI-H460 cells): 1020 nM
CCOP(C)(=O)c1cc(N2CCOC[C@H]2C)nc2c(-c3ccn[nH]3)nccc12 (stereo partly drawn) [Example 125, Ethyl methyl{2-[(3R)-3-methylmorpholin-4-yl]-8-(1H-pyrazol-5-yl)-1,7-naphthyridin-4-yl}phosphinate] | 17.2 nM | IC50 (Caco-2 cells): 2630 nM; IC50 (DU145 cells): 764 nM; IC50 (NCI-H460 cells): 541 nM
OC1(C(F)(F)F)CN(c2cc(N3CCOCC3)nc3c(-c4ccn[nH]4)nccc23)C1 [Example 180, 1-[2-(morpholin-4-yl)-8-(1H-pyrazol-5-yl)-1,7-naphthyridin-4-yl]-3-(trifluoromethyl)azetidin-3-ol] | 487 nM | –
COc1ncccc1-c1cc(N2CCOC[C@H]2C)nc2c(-c3ccn[nH]3)nccc12 [Example 220, 4-(2-methoxypyridin-3-yl)-2-[(3R)-3-methylmorpholin-4-yl]-8-(1H-pyrazol-5-yl)-1,7-naphthyridine] | 32.4 nM | –
CC(C)Oc1cc(N2[C@H](C)COC[C@H]2C)nc2c(-c3ccn[nH]3)nccc12 [Example 59, 2-[(3R,5R)-3,5-dimethylmorpholin-4-yl]-4-isopropoxy-8-(1H-pyrazol-5-yl)-1,7-naphthyridine] | 730 nM | IC50 [1, 3]: 1250 nM
C[C@@H]1COCCN1c1cc(C2CCS(=O)(=O)CC2)c2ccnc(-c3ccn[nH]3)c2n1 [Example 204, 4-(1,1-dioxidotetrahydro-2H-thiopyran-4-yl)-2-[(3R)-3-methylmorpholin-4-yl]-8-(1H-pyrazol-5-yl)-1,7-naphthyridine] | 6.76 nM | –
C[C@@H]1COCCN1c1cc(N=S(C)(=O)c2ccccc2O)c2ccnc(-c3ccn[nH]3)c2n1 (stereo partly drawn) [Example 276, 2-(methyl-N-{2-[(3R)-3-methylmorpholin-4-yl]-8-(1H-pyrazol-5-yl)-1,7-naphthyridin-4-yl}sulfonimidoyl)phenol] | 237 nM | –
C[C@@H]1COCCN1c1cc(-c2cnn(C3CCC3)c2)c2ccnc(-c3ccn[nH]3)c2n1 [Example 253, 4-(1-cyclobutyl-1H-pyrazol-4-yl)-2-[(3R)-3-methylmorpholin-4-yl]-8-(1H-pyrazol-5-yl)-1,7-naphthyridine] | 33.7 nM | –
O=C1CN(c2cc(N3CCOCC3)nc3c(-c4ccn[nH]4)nccc23)CCN1 [Example 176, 4-[2-(morpholin-4-yl)-8-(1H-pyrazol-5-yl)-1,7-naphthyridin-4-yl]piperazin-2-one] | 223 nM | –
C[C@@H]1COCCN1c1cc(-c2[nH]nnc2C2CC2)c2ccnc(-c3ccn[nH]3)c2n1 [Example 194, 4-(4-cyclopropyl-1H-1,2,3-triazol-5-yl)-2-[(3R)-3-methylmorpholin-4-yl]-8-(1H-pyrazol-5-yl)-1,7-naphthyridine] | 37.6 nM | –
C[C@@H]1COCCN1c1cc(OCCN)c2ccnc(-c3ccn[nH]3)c2n1 [Example 55, 2-({2-[(3R)-3-methylmorpholin-4-yl]-8-(1H-pyrazol-5-yl)-1,7-naphthyridin-4-yl}oxy)ethanamine] | 162 nM | –
Cc1ccc(-c2cc(N3CCOC[C@H]3C)nc3c(-c4ccn[nH]4)nccc23)cn1 [Example 88, 2-[(3R)-3-methylmorpholin-4-yl]-4-(6-methylpyridin-3-yl)-8-(1H-pyrazol-5-yl)-1,7-naphthyridine] | 15.3 nM | –
CC(C)Sc1cc(N2CCOCC2)nc2c(-c3ccn[nH]3)nccc12 [Example 210, 2-(morpholin-4-yl)-4-(propan-2-ylsulfanyl)-8-(1H-pyrazol-5-yl)-1,7-naphthyridine] | 231 nM | –
C[C@@H]1COCCN1c1cc(-c2ncco2)c2ccnc(-c3ccn[nH]3)c2n1 [Example 270, 2-[(3R)-3-methylmorpholin-4-yl]-4-(1,3-oxazol-2-yl)-8-(1H-pyrazol-5-yl)-1,7-naphthyridine] | 33.7 nM | –
Cc1ncccc1-c1cc(N2CCOC[C@H]2C)nc2c(-c3ccn[nH]3)nccc12 [Example 218, 2-[(3R)-3-methylmorpholin-4-yl]-4-(2-methylpyridin-3-yl)-8-(1H-pyrazol-5-yl)-1,7-naphthyridine] | 11.8 nM | –
CS(=O)(=O)c1ccc(-c2cc(N3CCOCC3)nc3c(-c4ccn[nH]4)nccc23)c(F)c1 [Example 24, 4-[2-fluoro-4-(methylsulfonyl)phenyl]-2-(morpholin-4-yl)-8-(1H-pyrazol-5-yl)-1,7-naphthyridine] | 38.2 nM | IC50 [1, 3]: 20.7 nM
